{"source": "patent US20230085307A1", "about": "“PYRIDAZINONE COMPOUND AND HERBICIDE” (NISSAN CHEMICAL CORPORATION, priority 2019, published 2023)", "key": {"redroot pigweed [1]": {"system": "redroot pigweed", "test": "Test Example 4: herbicidal effect by soil treatment (Table 19, symbol N)", "assay_type": "in vivo, redroot pigweed (Amaranthus retroflexus)", "conditions": "amount of applied herbicide 320 g/ha", "outline": "(§1)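 Emulsion of test compound, water-diluted to predetermined amount, sprayed on soil after sowing (seed depth ~1.5 cm, sterilized diluvial soil). Greenhouse, 25–30° C. Effect graded at three weeks post-spray.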"}, "southern crabgrass [2]": {"system": "southern crabgrass", "test": "Test Example 4: herbicidal effect by soil treatment (Table 19, symbol F)", "assay_type": "in vivo, southern crabgrass (Digitaria ciliaris)", "conditions": "amount of applied herbicide 320 g/ha", "outline": "as §1"}, "blackgrass [3]": {"system": "blackgrass", "test": "Test Example 5: herbicidal effect by foliage application, plastic box (Table 20, symbol J)", "assay_type": "in vivo, blackgrass (Alopecurus myosuroides)", "conditions": "foliage application, 320 g/ha, three weeks after application", "outline": "(§2)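 Post-emergence foliar test in sterilized diluvial soil. Compound applied as water-diluted emulsion at a predetermined rate to 14-day-old plants; evaluation at three weeks.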"}, "barnyard grass [4]": {"system": "barnyard grass", "test": "Test Example 3: herbicidal effect by foliage application, Wagner pot (Table 18, symbol H)", "assay_type": "in vivo, barnyard grass (Echinochloa crus-galli)", "conditions": "amount of applied herbicide 320 g/ha", "outline": "(§3)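 Plants were sown in alluvial soil held under 0.1–0.5 cm standing water and grown 14 days in a greenhouse at 25–30 °C. An emulsifiable formulation, water-diluted to the set dose, was then sprayed onto the foliage, and effects were scored three weeks later using previously defined criteria.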"}, "barnyard grass [5]": {"system": "barnyard grass", "test": "Test Example 5: herbicidal effect by foliage application, plastic box (Table 20, symbol H)", "assay_type": "in vivo, barnyard grass (Echinochloa crus-galli)", "conditions": "foliage application, 320 g/ha, three weeks after application", "outline": "as §2"}, "lambsquarters [6]": {"system": "lambsquarters", "test": "Test Example 5: herbicidal effect by foliage application, plastic box (Table 20, symbol O)", "assay_type": "in vivo, lambsquarters (Chenopodium album)", "conditions": "foliage application, 320 g/ha, three weeks after application", "outline": "as §2"}, "lambsquarters [7]": {"system": "lambsquarters", "test": "Test Example 4: herbicidal effect by soil treatment (Table 19, symbol O)", "assay_type": "in vivo, lambsquarters (Chenopodium album)", "conditions": "amount of applied herbicide 320 g/ha", "outline": "as §1"}, "wild oat [8]": {"system": "wild oat", "test": "Test Example 4: herbicidal effect by soil treatment (Table 19, symbol I)", "assay_type": "in vivo, wild oat (Avena fatua)", "conditions": "amount of applied herbicide 320 g/ha", "outline": "as §1"}, "green foxtail [9]": {"system": "green foxtail", "test": "Test Example 4: herbicidal effect by soil treatment (Table 19, symbol G)", "assay_type": "in vivo, green foxtail (Setaria viridis)", "conditions": "amount of applied herbicide 320 g/ha", "outline": "as §1"}, "blackgrass [10]": {"system": "blackgrass", "test": "Test Example 4: herbicidal effect by soil treatment (Table 19, symbol J)", "assay_type": "in vivo, blackgrass (Alopecurus myosuroides)", "conditions": "amount of applied herbicide 320 g/ha", "outline": "as §1"}, "late watergrass": {"system": "late watergrass", "test": "Test Example 1: herbicidal activity, application before weed generation under submerged conditions (Table 16, symbol A)", "assay_type": "in vivo, late watergrass (Echinochloa oryzicola)", "conditions": "amount of applied herbicide 320 g/ha", "outline": "(§4)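 Alluvial soil was flooded to 4 cm depth, weed seeds were sown mixed and 2.5-leaf rice seedlings were transplanted. On sowing day, the compound's emulsion, diluted in water to a set dose, was applied to the water surface. Plants grew at 25–30 °C and were scored 0–5 after three weeks.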"}, "persian speedwell [11]": {"system": "persian speedwell", "test": "Test Example 5: herbicidal effect by foliage application, plastic box (Table 20, symbol R)", "assay_type": "in vivo, Persian speedwell (Veronica persica)", "conditions": "foliage application, 320 g/ha, three weeks after application", "outline": "as §2"}, "rice flat sedge": {"system": "rice flat sedge", "test": "Test Example 3: herbicidal effect by foliage application, Wagner pot (Table 18, symbol E)", "assay_type": "in vivo, rice flat sedge (Cyperus iria)", "conditions": "amount of applied herbicide 320 g/ha", "outline": "as §3"}, "chickweed [12]": {"system": "chickweed", "test": "Test Example 5: herbicidal effect by foliage application, plastic box (Table 20, symbol P)", "assay_type": "in vivo, common chickweed (Stellaria media)", "conditions": "foliage application, 320 g/ha, three weeks after application", "outline": "as §2"}, "chickweed [13]": {"system": "chickweed", "test": "Test Example 4: herbicidal effect by soil treatment (Table 19, symbol P)", "assay_type": "in vivo, common chickweed (Stellaria media)", "conditions": "amount of applied herbicide 320 g/ha", "outline": "as §1"}, "persian speedwell [14]": {"system": "persian speedwell", "test": "Test Example 4: herbicidal effect by soil treatment (Table 19, symbol R)", "assay_type": "in vivo, Persian speedwell (Veronica persica)", "conditions": "amount of applied herbicide 320 g/ha", "outline": "as §1"}, "Italian ryegrass [15]": {"system": "Italian ryegrass", "test": "Test Example 4: herbicidal effect by soil treatment (Table 19, symbol K)", "assay_type": "in vivo, Italian ryegrass (Lolium multiflorum)", "conditions": "amount of applied herbicide 320 g/ha", "outline": "as §1"}, "velvetleaf [16]": {"system": "velvetleaf", "test": "Test Example 5: herbicidal effect by foliage application, plastic box (Table 20, symbol M)", "assay_type": "in vivo, velvetleaf (Abutilon theophrasti)", "conditions": "foliage application, 320 g/ha, three weeks after application", "outline": "as §2"}, "wild oat [17]": {"system": "wild oat", "test": "Test Example 5: herbicidal effect by foliage application, plastic box (Table 20, symbol I)", "assay_type": "in vivo, wild oat (Avena fatua)", "conditions": "foliage application, 320 g/ha, three weeks after application", "outline": "as §2"}, "oval-leafed pondweed": {"system": "oval-leafed pondweed", "test": "Test Example 1: herbicidal activity, application before weed generation under submerged conditions (Table 16, symbol C)", "assay_type": "in vivo, oval-leafed pondweed (Monochoria vaginalis)", "conditions": "amount of applied herbicide 320 g/ha", "outline": "as §4"}, "Japanese bulrush": {"system": "Japanese bulrush", "test": "Test Example 1: herbicidal activity, application before weed generation under submerged conditions (Table 16, symbol B)", "assay_type": "in vivo, Japanese bulrush (Schoenoplectus juncoides)", "conditions": "amount of applied herbicide 320 g/ha", "outline": "as §4"}, "windgrass": {"system": "windgrass", "test": "Test Example 4: herbicidal effect by soil treatment (Table 19, symbol L)", "assay_type": "in vivo, windgrass (Apera spica-venti)", "conditions": "amount of applied herbicide 320 g/ha", "outline": "as §1"}, "green foxtail [18]": {"system": "green foxtail", "test": "Test Example 5: herbicidal effect by foliage application, plastic box (Table 20, symbol G)", "assay_type": "in vivo, green foxtail (Setaria viridis)", "conditions": "foliage application, 320 g/ha, three weeks after application", "outline": "as §2"}, "barnyard grass [19]": {"system": "barnyard grass", "test": "Test Example 4: herbicidal effect by soil treatment (Table 19, symbol H)", "assay_type": "in vivo, barnyard grass (Echinochloa crus-galli)", "conditions": "amount of applied herbicide 320 g/ha", "outline": "as §1"}, "Chinese sprangletop": {"system": "Chinese sprangletop", "test": "Test Example 3: herbicidal effect by foliage application, Wagner pot (Table 18, symbol D)", "assay_type": "in vivo, chinese sprangletop (Leptochloa chinensis)", "conditions": "amount of applied herbicide 320 g/ha", "outline": "as §3"}, "velvetleaf [20]": {"system": "velvetleaf", "test": "Test Example 4: herbicidal effect by soil treatment (Table 19, symbol M)", "assay_type": "in vivo, velvetleaf (Abutilon theophrasti)", "conditions": "amount of applied herbicide 320 g/ha", "outline": "as §1"}, "southern crabgrass [21]": {"system": "southern crabgrass", "test": "Test Example 5: herbicidal effect by foliage application, plastic box (Table 20, symbol F)", "assay_type": "in vivo, southern crabgrass (Digitaria ciliaris)", "conditions": "foliage application, 320 g/ha, three weeks after application", "outline": "as §2"}, "Italian ryegrass [22]": {"system": "Italian ryegrass", "test": "Test Example 5: herbicidal effect by foliage application, plastic box (Table 20, symbol K)", "assay_type": "in vivo, Italian ryegrass (Lolium multiflorum)", "conditions": "foliage application, 320 g/ha, three weeks after application", "outline": "as §2"}, "redroot pigweed [23]": {"system": "redroot pigweed", "test": "Test Example 5: herbicidal effect by foliage application, plastic box (Table 20, symbol N)", "assay_type": "in vivo, redroot pigweed (Amaranthus retroflexus)", "conditions": "foliage application, 320 g/ha, three weeks after application", "outline": "as §2"}}, "data": [{"molecule": "COCCn1nc(C)c(O)c(-c2c(-c3ccc(F)cc3)sc3ccc(F)cc23)c1=O", "note": "[2-429]", "values": [{"measurement": "herbicidal effect, N: redroot pigweed", "setting": "redroot pigweed [1]", "value": "3 (Herbicidal rate of 40% or more and less than 70%)"}, {"measurement": "herbicidal effect, F: southern crabgrass", "setting": "southern crabgrass [2]", "value": "0 (Herbicidal rate of 5% or less (almost no effect))"}, {"measurement": "J: blackgrass, herbicidal effect grade", "setting": "blackgrass [3]", "value": "0 (Herbicidal rate of 5% or less (almost no effect))"}, {"measurement": "herbicidal effect on H: barnyard grass", "setting": "barnyard grass [4]", "value": "3 (Herbicidal rate of 40% or more and less than 70%)"}, {"measurement": "H: barnyard grass, herbicidal effect grade", "setting": "barnyard grass [5]", "value": "0 (Herbicidal rate of 5% or less (almost no effect))"}, {"measurement": "O: lambsquarters, herbicidal effect grade", "setting": "lambsquarters [6]", "value": "0 (Herbicidal rate of 5% or less (almost no effect))"}, {"measurement": "herbicidal effect, O: lambsquarters", "setting": "lambsquarters [7]", "value": "0 (Herbicidal rate of 5% or less (almost no effect))"}, {"measurement": "herbicidal effect, I: wild oat", "setting": "wild oat [8]", "value": "0 (Herbicidal rate of 5% or less (almost no effect))"}, {"measurement": "herbicidal effect, G: green foxtail", "setting": "green foxtail [9]", "value": "0 (Herbicidal rate of 5% or less (almost no effect))"}, {"measurement": "herbicidal effect, J: blackgrass", "setting": "blackgrass [10]", "value": "0 (Herbicidal rate of 5% or less (almost no effect))"}, {"measurement": "Herbicidal effect, A: late watergrass", "setting": "late watergrass", "value": "3 (Herbicidal rate of 40% or more and less than 70%)"}, {"measurement": "R: persian speedwell, herbicidal effect grade", "setting": "persian speedwell [11]", "value": "4 (Herbicidal rate of 70% or more and less than 90%)"}, {"measurement": "herbicidal effect on E: rice flat sedge", "setting": "rice flat sedge", "value": "0 (Herbicidal rate of 5% or less (almost no effect))"}, {"measurement": "P: chickweed, herbicidal effect grade", "setting": "chickweed [12]", "value": "5 (Herbicidal rate of 90% or more (almost completely withered))"}, {"measurement": "herbicidal effect, P: chickweed", "setting": "chickweed [13]", "value": "0 (Herbicidal rate of 5% or less (almost no effect))"}, {"measurement": "herbicidal effect, R: persian speedwell", "setting": "persian speedwell [14]", "value": "0 (Herbicidal rate of 5% or less (almost no effect))"}, {"measurement": "herbicidal effect, K: Italian ryegrass", "setting": "Italian ryegrass [15]", "value": "0 (Herbicidal rate of 5% or less (almost no effect))"}, {"measurement": "M: velvetleaf, herbicidal effect grade", "setting": "velvetleaf [16]", "value": "2 (Herbicidal rate of 20% or more and less than 40%)"}, {"measurement": "I: wild oat, herbicidal effect grade", "setting": "wild oat [17]", "value": "0 (Herbicidal rate of 5% or less (almost no effect))"}, {"measurement": "Herbicidal effect, C: oval-leafed pondweed", "setting": "oval-leafed pondweed", "value": "3 (Herbicidal rate of 40% or more and less than 70%)"}, {"measurement": "Herbicidal effect, B: Japanese bulrush", "setting": "Japanese bulrush", "value": "2 (Herbicidal rate of 20% or more and less than 40%)"}, {"measurement": "herbicidal effect, L: windgrass", "setting": "windgrass", "value": "0 (Herbicidal rate of 5% or less (almost no effect))"}, {"measurement": "G: green foxtail, herbicidal effect grade", "setting": "green foxtail [18]", "value": "0 (Herbicidal rate of 5% or less (almost no effect))"}, {"measurement": "herbicidal effect, H: barnyard grass", "setting": "barnyard grass [19]", "value": "0 (Herbicidal rate of 5% or less (almost no effect))"}, {"measurement": "herbicidal effect on D: Chinese sprangletop", "setting": "Chinese sprangletop", "value": "0 (Herbicidal rate of 5% or less (almost no effect))"}, {"measurement": "herbicidal effect, M: velvetleaf", "setting": "velvetleaf [20]", "value": "1 (Herbicidal rate of 5% or more and less than 20%)"}, {"measurement": "F: southern crabgrass, herbicidal effect grade", "setting": "southern crabgrass [21]", "value": "2 (Herbicidal rate of 20% or more and less than 40%)"}, {"measurement": "K: Italian ryegrass, herbicidal effect grade", "setting": "Italian ryegrass [22]", "value": "0 (Herbicidal rate of 5% or less (almost no effect))"}, {"measurement": "N: redroot pigweed, herbicidal effect grade", "setting": "redroot pigweed [23]", "value": "3 (Herbicidal rate of 40% or more and less than 70%)"}]}]}
